This is an account of results in patent US20160000796A1, “PHARMACEUTICAL COMPOSITION FOR USE IN PREVENTION OR TREATMENT OF CANCER” (priority 2013, published 2016).

Assay [1] has as its system HTLV-1-producing cell line, MT2. Briefly: Cellular proliferation test (MTS assay), MT2. Type of assay: cell-based. As to the method: HTLV-1-producing cell lines, MT2 (transformant with HTLV-1, JCRB cell No: JCRB1210) and HUT102 (ATL-derived cell line, ATCC No: TIB-162), were used.
(§1) Each nucleoside analogue reverse transcriptase inhibitor was added to the medium for cells at a final concentration of 100 μM. Cells were seeded on a 96-well plate at a concentration of 1×10^4 cells/100 μL/well and cultured for 4 hours (Day 0), 48 hours (Day 2) or 96 hours (Day 4). A medium added DMSO (solvent control) alone was used as a control. Cellular proliferation was examined by MTS assay. Specifically, after the cells were cultured for a predetermined time, a reagent for cellular proliferation test, Aqueous One Solution Cell Proliferation (trade name, manufactured by Promega), was added to the cells. Four hours later, absorbance at 490 nm was measured. The cellular proliferation was represented by a ratio relative to that of the control (solvent control) on Day 0 that was regarded as 1.
Abacavir was added to MT2 and HUT102 used in Example 1 at a concentration of 0 μM (DMSO was added instead of abacavir), 10 μM, 25 μM, 50 μM, 75 μM or 100 μM. The cells were seeded on a 96-well plate at a concentration of 1×10^4 cells/100 μL/well and cultured for 4 hours or 48 hours. […]
On the technique in general: Formazan colour is commonly taken as a measure of viable cells.

Assay [2] has as its system ED40515 (−) (non-virus-producing ATL cell line). Briefly: Cellular proliferation (MTS assay), ED40515 (−). The class given is cell-based. The procedure:
as §1
(§2) This example used HTLV-1-infected cell lines (non-virus-producing ATL cell lines): ED40515 (−), ED40515 (+), and ATL43T (all were provided by Prof. Michiyuki Maeda who produced the cells); and SYK-11L (+) (prepared in the laboratory of the inventors).
(§3) The six types of nucleoside analogue reverse transcriptase inhibitors as used in Example 1 were used and cellular proliferation was examined in the same manner as in Example 1. […]

Assay [3] has as its system ED40515 (+) (non-virus-producing ATL cell line). In words: Cellular proliferation (MTS assay), ED40515 (+). The class given is cell-based. As to the method: as §1, §2, §3
In assay [4] the test system is SYK-11L (+) (non-virus-producing ATL cell line). Briefly: Cellular proliferation (MTS assay), SYK-11L (+). The class given is cell-based. As to the method:
as §1, §2, §3

For assay [5], the system named is ATL43T (non-virus-producing ATL cell line). In words: Cellular proliferation (MTS assay), ATL43T. The class given is cell-based. The procedure: as §1, §2, §3
In assay [6] the test system is H9 (non-HTLV-1-infected cell line). In words: Cellular proliferation (MTS assay), H9. The settings on record: 100 μM. Type of assay: cell-based. The procedure: as §1
(§4) This example used non-HTLV-1-infected cell lines: Jurkat (cell line derived from human T-cell leukemia, ATCC No: TIB-152), Kit225 (cell line derived from chronic T-cell leukemia, established in the laboratory of the inventors, Blood. 1987 October; 70 (4): 1069-72.), H9 (cell line derived from cutaneous T-cell lymphoma, ATCC No: HTB-176) and SUDHL6 (cell line derived from diffuse B cell lymphoma).
(§5) The six types of nucleoside analogue reverse transcriptase inhibitors as used in Example 1 were used and cellular proliferation was examined in the same manner as in Example 1.

Assay [7] deals with SUDHL6 (non-HTLV-1-infected cell line). In words: Cellular proliferation (MTS assay), SUDHL6. Type of assay: cell-based. The settings on record: 100 μM. The procedure: as §1, §4, §5
For assay [8], the system named is ATL cell line, ED40515 (−). In words: Chromosome double-strand break (Giemsa chromosome specimens), ED40515 (−). Type of assay: cell-based. The settings on record: 48 hours, abacavir 10-100 μM, zidovudine 10 or 100 μM. The procedure: Abacavir was added to an ATL cell line, ED40515 (−), at a concentration of 0 μM (DMSO was added instead of abacavir), 10 μM, 25 μM, 50 μM, 75 μM or 100 μM. After the 48 hours culture, the cells were fixed by Carnoy and stained with Giemsa to prepare chromosome specimens in accordance with conventional methods. Similarly, zidovudine was added to ED40515 (−) at a concentration of 10 μM or 100 μM, and abacavir was added to a non-ATL cell line, Jurkat, at a concentration of 100 μM, and chromosome specimens were prepared. Chromosome images (100 or more images per group) were observed by an optical microscope. The cells were determined as being positive for double-strand break (DSB) when at least one chromosome break was found.

The test system of assay [9] is ATL cell line, ED40515 (−). In words: Cell-cycle analysis by flow cytometry (PI), ED40515 (−). The note with it: 10 μM or 100 μM, 24 hours. The class given is cell-based. The procedure:
(§6) To an ATL cell line, ED40515 (−), or a non-ATL cell line, Jurkat, DMSO (solvent control), adriamycin (ADR, positive control) or abacavir (10 μM or 100 μM) was added.
A general note: A flow cytometer gives signals particle by particle.

The subject of assay [10] is non-ATL cell line, Jurkat. In words: Cell-cycle analysis by flow cytometry (PI), Jurkat. Type of assay: cell-based, human. The settings on record: 10 μM or 100 μM, 24 hours. As to the method:
as §6

The test system of assay [11] is ATL cell line, ED40515 (−). In words: Apoptosis (annexin V flow cytometry), ED40515 (−). Type of assay: cell-based. The settings on record: 100 μM, 24 or 48 hours. The procedure: DMSO (solvent control), adriamycin (ADR, positive control), or abacavir (100 μM) was added to an ATL cell line, ED40515 (−). The cells were cultured for 24 hours or 48 hours. After the culture of a predetermined time, the cells were stained with annexin V, and annexin V positive cells were measured by flow cytometry. The annexin V positive cells were determined as apoptotic cells.

In the case of `Nc1nc(NC2CC2)c2ncn([C@H]3C=C[C@@H](CO)C3)c2n1` [abacavir, (−)-(1S,4R)-4-[2-amino-6-(cyclopropylamino)-9H-purin-9-yl]-2-cyclopentene-1-methanol], in [1] (100 μM, Day 0, 2, 4, compared among six NRTIs), the “cellular proliferation (ratio relative to solvent control on Day 0)” value is reported as “most strongly suppressed”. The “cellular proliferation, dose dependence” value in assay [1] (10, 25, 50, 75, 100 μM, 48 hours) is on record as “suppressed cellular proliferation of both cell lines in a dose-dependent manner”; in [2] (10-100 μM, Day 0, 2, 4), “suppressed cellular proliferation of all the cell lines in a dose-dependent manner”; in assay [3] (10-100 μM, Day 0, 2, 4) it was “suppressed cellular proliferation of all the cell lines in a dose-dependent manner”; in assay [4] (10-100 μM, Day 0, 2, 4), “suppressed cellular proliferation of all the cell lines in a dose-dependent manner”; in assay [5] (10-100 μM, Day 0, 2, 4) it was “suppressed cellular proliferation of all the cell lines in a dose-dependent manner”. Besides, the cellular proliferation result was “strong suppressive effect” in assay [2] (100 μM); “strong suppressive effect” in [3] (100 μM); “strong suppressive effect” in assay [4] (100 μM); “strong suppressive effect” in assay [5] (100 μM); “did not exhibit a suppressive effect” in [6]; “did not exhibit a suppressive effect” in assay [7]. The “ratio of double-strand break-positive cells” value in [8] is reported as “increased the ratio of double-strand break-positive cells in a dose-dependent manner”. The “cell cycle (ratio of cells in G0G1/S/G2 phase)” value in [9] is recorded as “induced the S/G2 arrest”; in assay [10], “did not affect the cell cycle”. Further, the “apoptosis (annexin V positive cells)” value in assay [11] is “induced apoptosis”.
